In the NIST ThermoML archive (doi:10.1021/je200508x):

Assay: molar heat capacity at constant pressure
Details: 101.33 kPa, Crystal, Vacuum adiabatic calorimetry

C=C(C)C(=O)[O][Sb]([O]C(=O)C(=C)C)([c]1ccccc1)([c]1ccccc1)[c]1ccccc1 [triphenyl-.lambda.5-stibanediyl bis(2-methylacrylate)]
Details	molar heat capacity at constant pressure [J/K/mol]
5 K	2.01
5.69 K	2.9
6.38 K	4.02
7.1 K	5.41
7.71 K	6.68
8.27 K	7.96
8.8 K	9.25
9.02 K	9.78
9.38 K	10.7
9.91 K	12
10 K	12.3
10.45 K	13.4
10.84 K	14.3
11.3 K	15.5
11.73 K	16.5
12.1 K	17.4
13.05 K	19.9
13.67 K	21.6
14.66 K	24.5
15 K	25.4
15.64 K	27.4
16.62 K	30.16
17.59 K	33.15
18.52 K	36.15
19.07 K	37.69
19.58 K	39.2
20 K	40.48
21.68 K	45.73
24.61 K	55.52
25 K	56.85
26.89 K	62.82
28.78 K	68.55
30 K	72.23
31.21 K	75.9
31.81 K	78.04
33.66 K	83.66
33.76 K	84.46
35 K	88.24
36.21 K	92.11
38.67 K	99.54
40 K	103.4
41.14 K	106.6
43.6 K	113.8
45 K	117.5
46.06 K	120.5
48.52 K	127.2
50 K	131.7
50.62 K	133.3
52.35 K	138.3
56.62 K	149.3
57.11 K	150.1
59.23 K	155.6
60 K	157.4
61.69 K	161.4
64.15 K	167.4
66.61 K	173.5
68.65 K	178.9
70 K	181.9
70.8 K	183.9
73.27 K	189.7
75.28 K	193.9
77.44 K	199
79.9 K	204.6
80 K	204.8
82.19 K	210
84.03 K	214.2
84.36 K	214.5
86.03 K	217.9
86.44 K	219.2
88.12 K	222.6
88.53 K	223.9
90 K	226.3
90.24 K	227.1
90.62 K	227.4
92.99 K	232
95.37 K	236.4
97.74 K	240.6
100 K	245.1
100.11 K	245.2
102.48 K	250
104.85 K	254
107.22 K	258.4
109.45 K	262.8
110 K	263.4
111.82 K	266.7
114.3 K	271.1
116.58 K	275.1
118.96 K	279
120 K	280.8
121.34 K	283
123.72 K	286.8
126.1 K	290.5
128.48 K	294.9
130 K	297.4
130.59 K	298.4
132.7 K	302.2
135.08 K	306.4
139.6 K	313.7
140 K	314.6
141.3 K	316.8
143.4 K	321
145.22 K	324.6
147.6 K	328.9
149.99 K	333.6
150 K	333.6
152.36 K	347.2
154.75 K	352.6
157.14 K	362.4
159.53 K	372.2
160 K	372.6
161.92 K	369.5
164.34 K	355.3
166.76 K	356.4
169.15 K	360
170 K	361.2
171.6 K	363.4
173.9 K	366.7
175.85 K	369.5
178.25 K	372.5
180 K	375.2
180.65 K	376.2
183.05 K	379.6
184.24 K	380.9
187.35 K	385.8
190 K	389.6
190.9 K	391.1
194.06 K	395.5
197.17 K	400.2
200 K	404.7
200.73 K	406
204.87 K	412.6
209.58 K	420
210 K	420.5
214.29 K	427
218.98 K	434.2
220 K	436.3
223.67 K	442.1
228.35 K	449.1
230 K	451.7
232.58 K	456.1
236.01 K	461
240 K	466.6
240.06 K	466.4
244.71 K	473.3
249.36 K	480
250 K	481.2
252.66 K	484.9
256.66 K	491.7
260 K	496.3
261.29 K	497.9
265.91 K	505.5
270 K	511.1
270.5 K	511.7
275.08 K	518.7
277.79 K	522.4
280 K	525.9
281.19 K	527.2
284.56 K	532.8
287.93 K	538.8
290 K	541.9
291.28 K	544
294.6 K	550.2
297.91 K	555.7
298.15 K	555.9
300 K	559.1
301.2 K	561.8
304.48 K	566.7
307.74 K	572.1
310 K	576.3
310.99 K	577.4
314.22 K	583.3
317.43 K	588.2
320 K	592
320.63 K	592.8
323.81 K	597.8
327.25 K	602.8
330 K	607
330.43 K	607
332.9 K	611.4
334.78 K	614.7
340 K	621
350 K	635
360 K	649
370 K	664
380 K	679
390 K	694
400 K	709
